# Measured values as given in ChEMBL document CHEMBL4270587, “Difuran-substituted quinoxalines as a novel class of PI3Kα H1047R mutant inhibitors: Synthesis, biological evaluation and structure-activity relationship” (Eur J Med Chem, 2018).
# Legend:
# [1] = tested on: HCT-116; assay: Cell cycle arrest in human HCT116 cells assessed as accumulation at G1 phase at 5 uM after 24 hrs by propidium iodide staining based flow cytometry (reference value: 38.72%); format: functional
# [2] = tested on: HCT-116; assay: Induction of apoptosis in human HCT116 cells assessed as early apoptotic cells at 6.25 uM after 24 hrs by Annexin V-FITC/propidium iodide staining based flow cytometry (reference value: 2.24%); format: functional
# [3] = biological target: Phosphatidylinositol 4,5-bisphosphate 3-kinase catalytic subunit beta isoform (Homo sapiens, UniProt P42338); assay: Inhibition of PI3K-beta (unknown origin) after 40 mins by Kinase-Glo assay
# [4] = tested on: HCT-116; assay: Cell cycle arrest in human HCT116 cells assessed as accumulation at G2/M-phase at 20 uM after 24 hrs by propidium iodide staining based flow cytometry (reference value: 31.47%); format: functional
# [5] = tested on: HCT-116; assay: cells; settings: Homo sapiens, HCT-116, 72 h
# [6] = tested on: HCT-116; assay: Cell cycle arrest in human HCT116 cells assessed as accumulation at G1 phase at 10 uM after 24 hrs by propidium iodide staining based flow cytometry (reference value: 38.72%); format: functional
# [7] = tested on: HCT-116; assay: Induction of apoptosis in human HCT116 cells assessed as live cells at 12.5 uM after 24 hrs by Annexin V-FITC/propidium iodide staining based flow cytometry (reference value: 89.89%); format: functional
# [8] = tested on: HCT-116; assay: Cell cycle arrest in human HCT116 cells assessed as accumulation at S-phase at 10 uM after 24 hrs by propidium iodide staining based flow cytometry (reference value: 29.81%); format: functional
# [9] = tested on: HCT-116; assay: Induction of apoptosis in human HCT116 cells assessed as early apoptotic cells at 12.5 uM after 24 hrs by Annexin V-FITC/propidium iodide staining based flow cytometry (reference value: 2.24%); format: functional
# [10] = tested on: HCT-116; assay: Induction of apoptosis in human HCT116 cells assessed as increase in active caspase-9 protein expression after 72 hrs by Western blot analysis; format: functional, cell-based
# [11] = tested on: MCF7; assay: cells; settings: Homo sapiens, MCF7, 72 h
# Description: Antiproliferative activity against human MCF7 cells after 72 hrs by CCK8 assay
# [12] = biological target: PI3-kinase p110-alpha/p85-alpha (Homo sapiens, UniProt P42336); assay: Inhibition of recombinant full length PI3K p110alpha/p85alpha (unknown origin) expressed in baculovirus infected sf9 cells using PIP2 as substrate preincubated for 10 mins followed by ATP addition and measured after 45 mins by HTRF assay
# [13] = tested on: HCT-116; assay: Cell cycle arrest in human HCT116 cells assessed as accumulation at S-phase at 5 uM after 24 hrs by propidium iodide staining based flow cytometry (reference value: 29.81%); format: functional
# [14] = tested on: HCT-116; assay: Induction of apoptosis in human HCT116 cells assessed as increase in active caspase-8 protein expression after 72 hrs by Western blot analysis; format: functional, cell-based
# [15] = tested on: HCT-116; assay: Cell cycle arrest in human HCT116 cells assessed as accumulation at G1 phase at 20 uM after 24 hrs by propidium iodide staining based flow cytometry (reference value: 38.72%); format: functional
# [16] = tested on: HCT-116; assay: Induction of apoptosis in human HCT116 cells assessed as early apoptotic cells at 25 uM after 24 hrs by Annexin V-FITC/propidium iodide staining based flow cytometry (reference value: 2.24%); format: functional
# [17] = biological target: PI3-kinase p110-alpha/p85-alpha (Homo sapiens, UniProt P42336, H1047R); assay: Inhibition of recombinant full length PI3K p85alpha/p110alpha H1047R mutant (unknown origin) expressed in baculovirus infected sf9 cells using PIP2 as substrate preincubated for 10 mins followed by ATP addition and measured after 45 mins by HTRF assay
# [18] = tested on: HCT-116; assay: Induction of apoptosis in human HCT116 cells assessed as live cells at 6.25 uM after 24 hrs by Annexin V-FITC/propidium iodide staining based flow cytometry (reference value: 89.89%); format: functional
# [19] = tested on: HCT-116; assay: Cell cycle arrest in human HCT116 cells assessed as accumulation at G2/M-phase at 10 uM after 24 hrs by propidium iodide staining based flow cytometry (reference value: 31.47%); format: functional
# [20] = tested on: HCT-116; assay: Induction of apoptosis in human HCT116 cells assessed as live cells at 25 uM after 24 hrs by Annexin V-FITC/propidium iodide staining based flow cytometry (reference value: 89.89%); format: functional
# [21] = tested on: HCT-116; assay: Cell cycle arrest in human HCT116 cells assessed as accumulation at S-phase at 20 uM after 24 hrs by propidium iodide staining based flow cytometry (reference value: 29.81%); format: functional
# [22] = tested on: HCT-116; assay: Induction of apoptosis in human HCT116 cells assessed as increase in active caspase-3 protein expression after 72 hrs by Western blot analysis; format: functional, cell-based
# [23] = tested on: HCT-116; assay: Induction of apoptosis in human HCT116 cells assessed as late apoptotic cells at 12.5 uM after 24 hrs by Annexin V-FITC/propidium iodide staining based flow cytometry (reference value: 7.2%); format: functional
# [24] = biological target: Phosphatidylinositol 4,5-bisphosphate 3-kinase catalytic subunit gamma isoform (Homo sapiens, UniProt P48736); assay: Inhibition of PI3K-gamma (unknown origin) after 40 mins by Kinase-Glo assay
# [25] = tested on: HCT-116; assay: Cell cycle arrest in human HCT116 cells assessed as accumulation at G1 phase after 24 hrs by propidium iodide staining based flow cytometry; format: functional
# [26] = tested on: HCT-116; assay: Induction of apoptosis in human HCT116 cells after 24 hrs by Annexin V-FITC/propidium iodide staining based flow cytometry; format: functional, cell-based
# [27] = tested on: HCT-116; assay: Induction of apoptosis in human HCT116 cells assessed as necrotic cells at 25 uM after 24 hrs by Annexin V-FITC/propidium iodide staining based flow cytometry (reference value: […]); format: functional
# [28] = tested on: HCT-116; assay: Induction of apoptosis in human HCT116 cells assessed as necrotic cells at 12.5 uM after 24 hrs by Annexin V-FITC/propidium iodide staining based flow cytometry (reference value: […]); format: functional
# [29] = biological target: T1, Phosphatidylinositol 4,5-bisphosphate 3-kinase catalytic subunit delta isoform (Homo sapiens, UniProt O00329); assay: Inhibition of PI3K-delta (unknown origin) after 40 mins by Kinase-Glo assay
# T1 sequence (O00329 whole entry): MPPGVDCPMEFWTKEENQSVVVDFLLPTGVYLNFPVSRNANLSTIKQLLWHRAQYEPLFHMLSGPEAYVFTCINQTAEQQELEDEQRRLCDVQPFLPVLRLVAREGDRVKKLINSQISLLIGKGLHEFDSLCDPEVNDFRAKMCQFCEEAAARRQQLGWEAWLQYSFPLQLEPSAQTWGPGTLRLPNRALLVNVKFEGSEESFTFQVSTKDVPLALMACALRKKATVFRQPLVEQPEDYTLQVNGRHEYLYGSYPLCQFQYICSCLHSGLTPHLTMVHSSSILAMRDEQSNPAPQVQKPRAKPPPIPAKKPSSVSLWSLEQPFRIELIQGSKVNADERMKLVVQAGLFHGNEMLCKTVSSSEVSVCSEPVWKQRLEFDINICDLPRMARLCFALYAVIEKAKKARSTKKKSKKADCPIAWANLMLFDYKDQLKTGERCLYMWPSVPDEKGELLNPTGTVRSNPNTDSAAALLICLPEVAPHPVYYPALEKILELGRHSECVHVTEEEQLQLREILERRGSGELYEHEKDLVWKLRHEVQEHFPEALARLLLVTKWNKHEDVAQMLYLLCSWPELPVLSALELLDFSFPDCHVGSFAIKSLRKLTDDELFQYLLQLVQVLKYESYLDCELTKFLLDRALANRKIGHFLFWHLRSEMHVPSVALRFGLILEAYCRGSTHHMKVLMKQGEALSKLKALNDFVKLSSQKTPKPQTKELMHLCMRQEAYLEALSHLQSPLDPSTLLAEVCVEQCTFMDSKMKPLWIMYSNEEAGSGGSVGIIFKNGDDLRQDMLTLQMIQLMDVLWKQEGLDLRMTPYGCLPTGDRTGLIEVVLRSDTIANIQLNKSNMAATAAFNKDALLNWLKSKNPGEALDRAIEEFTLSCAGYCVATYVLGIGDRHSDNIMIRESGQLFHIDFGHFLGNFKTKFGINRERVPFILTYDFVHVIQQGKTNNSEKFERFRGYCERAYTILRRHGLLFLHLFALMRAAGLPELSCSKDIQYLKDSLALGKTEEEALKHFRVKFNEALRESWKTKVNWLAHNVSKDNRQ
# [30] = tested on: HCT-116; assay: Induction of apoptosis in human HCT116 cells assessed as late apoptotic cells at 6.25 uM after 24 hrs by Annexin V-FITC/propidium iodide staining based flow cytometry (reference value: 7.2%); format: functional
# [31] = tested on: HCT-116; assay: Induction of apoptosis in human HCT116 cells assessed as late apoptotic cells at 25 uM after 24 hrs by Annexin V-FITC/propidium iodide staining based flow cytometry (reference value: 7.2%); format: functional
# [32] = tested on: HCT-116; assay: Cell cycle arrest in human HCT116 cells assessed as accumulation at G2/M-phase at 5 uM after 24 hrs by propidium iodide staining based flow cytometry (reference value: 31.47%); format: functional
# [33] = Inhibition of mTORC1 (unknown origin); parameters: species or system Homo sapiens
# [34] = tested on: HCT-116; assay: Induction of apoptosis in human HCT116 cells assessed as necrotic cells at 6.25 uM after 24 hrs by Annexin V-FITC/propidium iodide staining based flow cytometry (reference value: […]); format: functional
# Sequence of Phosphatidylinositol 4,5-bisphosphate 3-kinase catalytic subunit beta isoform (P42338 whole entry, canonical isoform): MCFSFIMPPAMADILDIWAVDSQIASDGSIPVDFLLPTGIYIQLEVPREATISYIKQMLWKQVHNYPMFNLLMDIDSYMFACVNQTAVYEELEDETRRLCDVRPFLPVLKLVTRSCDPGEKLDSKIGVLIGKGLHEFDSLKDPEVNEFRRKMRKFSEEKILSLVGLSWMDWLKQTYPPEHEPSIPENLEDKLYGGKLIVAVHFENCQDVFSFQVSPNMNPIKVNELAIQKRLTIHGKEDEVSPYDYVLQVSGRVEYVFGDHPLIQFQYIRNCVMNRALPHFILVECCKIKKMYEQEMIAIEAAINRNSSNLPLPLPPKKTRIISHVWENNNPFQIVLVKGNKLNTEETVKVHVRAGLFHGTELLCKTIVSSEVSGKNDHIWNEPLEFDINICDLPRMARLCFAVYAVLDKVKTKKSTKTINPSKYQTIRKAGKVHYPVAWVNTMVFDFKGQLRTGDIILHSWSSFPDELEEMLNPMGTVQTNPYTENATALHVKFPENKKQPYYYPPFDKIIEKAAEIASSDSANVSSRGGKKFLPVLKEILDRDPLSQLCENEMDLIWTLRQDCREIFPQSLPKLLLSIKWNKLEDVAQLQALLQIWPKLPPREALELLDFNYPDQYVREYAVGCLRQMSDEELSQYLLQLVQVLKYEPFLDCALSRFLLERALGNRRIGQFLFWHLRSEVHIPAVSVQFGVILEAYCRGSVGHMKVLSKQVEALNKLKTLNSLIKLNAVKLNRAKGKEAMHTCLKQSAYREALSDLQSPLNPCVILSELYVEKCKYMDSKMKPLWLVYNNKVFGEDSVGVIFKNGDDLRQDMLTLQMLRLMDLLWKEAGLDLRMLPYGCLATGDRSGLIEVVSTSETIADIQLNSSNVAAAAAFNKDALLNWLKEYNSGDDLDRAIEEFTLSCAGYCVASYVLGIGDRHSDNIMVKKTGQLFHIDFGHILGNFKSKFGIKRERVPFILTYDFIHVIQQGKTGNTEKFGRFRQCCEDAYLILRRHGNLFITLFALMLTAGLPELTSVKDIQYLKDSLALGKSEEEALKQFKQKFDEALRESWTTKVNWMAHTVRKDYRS
# Sequence of PI3-kinase p110-alpha/p85-alpha (Homo sapiens, UniProt P42336, H1047R) (P42336 whole entry H1047R, looked up): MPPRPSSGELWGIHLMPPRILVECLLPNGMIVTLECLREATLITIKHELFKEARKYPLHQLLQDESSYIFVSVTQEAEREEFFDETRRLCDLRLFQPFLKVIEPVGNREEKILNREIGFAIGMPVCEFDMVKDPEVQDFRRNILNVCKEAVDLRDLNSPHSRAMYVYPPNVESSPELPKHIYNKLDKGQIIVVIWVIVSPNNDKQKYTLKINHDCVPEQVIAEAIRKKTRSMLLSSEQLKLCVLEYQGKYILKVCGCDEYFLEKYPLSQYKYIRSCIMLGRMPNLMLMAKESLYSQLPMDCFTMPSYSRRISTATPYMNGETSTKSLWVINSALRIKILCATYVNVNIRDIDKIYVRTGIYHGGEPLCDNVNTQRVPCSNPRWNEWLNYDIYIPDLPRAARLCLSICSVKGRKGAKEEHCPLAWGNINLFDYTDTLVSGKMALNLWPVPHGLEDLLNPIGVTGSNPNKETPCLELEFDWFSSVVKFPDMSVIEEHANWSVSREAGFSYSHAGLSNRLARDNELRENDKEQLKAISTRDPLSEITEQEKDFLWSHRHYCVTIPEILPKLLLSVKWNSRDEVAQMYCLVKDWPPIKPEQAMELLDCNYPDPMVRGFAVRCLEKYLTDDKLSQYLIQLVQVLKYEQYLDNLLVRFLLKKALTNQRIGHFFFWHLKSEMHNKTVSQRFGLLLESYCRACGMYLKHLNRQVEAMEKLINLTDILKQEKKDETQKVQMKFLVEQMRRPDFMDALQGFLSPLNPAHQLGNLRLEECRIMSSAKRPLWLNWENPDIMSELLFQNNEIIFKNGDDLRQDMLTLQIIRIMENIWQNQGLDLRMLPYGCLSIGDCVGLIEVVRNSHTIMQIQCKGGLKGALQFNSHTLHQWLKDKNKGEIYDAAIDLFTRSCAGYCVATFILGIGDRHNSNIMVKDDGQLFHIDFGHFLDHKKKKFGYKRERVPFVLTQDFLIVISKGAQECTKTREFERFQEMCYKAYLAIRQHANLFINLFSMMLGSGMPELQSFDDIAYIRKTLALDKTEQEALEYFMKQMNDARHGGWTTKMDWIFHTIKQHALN
# Sequence of Phosphatidylinositol 4,5-bisphosphate 3-kinase catalytic subunit gamma isoform (P48736 whole entry, canonical isoform): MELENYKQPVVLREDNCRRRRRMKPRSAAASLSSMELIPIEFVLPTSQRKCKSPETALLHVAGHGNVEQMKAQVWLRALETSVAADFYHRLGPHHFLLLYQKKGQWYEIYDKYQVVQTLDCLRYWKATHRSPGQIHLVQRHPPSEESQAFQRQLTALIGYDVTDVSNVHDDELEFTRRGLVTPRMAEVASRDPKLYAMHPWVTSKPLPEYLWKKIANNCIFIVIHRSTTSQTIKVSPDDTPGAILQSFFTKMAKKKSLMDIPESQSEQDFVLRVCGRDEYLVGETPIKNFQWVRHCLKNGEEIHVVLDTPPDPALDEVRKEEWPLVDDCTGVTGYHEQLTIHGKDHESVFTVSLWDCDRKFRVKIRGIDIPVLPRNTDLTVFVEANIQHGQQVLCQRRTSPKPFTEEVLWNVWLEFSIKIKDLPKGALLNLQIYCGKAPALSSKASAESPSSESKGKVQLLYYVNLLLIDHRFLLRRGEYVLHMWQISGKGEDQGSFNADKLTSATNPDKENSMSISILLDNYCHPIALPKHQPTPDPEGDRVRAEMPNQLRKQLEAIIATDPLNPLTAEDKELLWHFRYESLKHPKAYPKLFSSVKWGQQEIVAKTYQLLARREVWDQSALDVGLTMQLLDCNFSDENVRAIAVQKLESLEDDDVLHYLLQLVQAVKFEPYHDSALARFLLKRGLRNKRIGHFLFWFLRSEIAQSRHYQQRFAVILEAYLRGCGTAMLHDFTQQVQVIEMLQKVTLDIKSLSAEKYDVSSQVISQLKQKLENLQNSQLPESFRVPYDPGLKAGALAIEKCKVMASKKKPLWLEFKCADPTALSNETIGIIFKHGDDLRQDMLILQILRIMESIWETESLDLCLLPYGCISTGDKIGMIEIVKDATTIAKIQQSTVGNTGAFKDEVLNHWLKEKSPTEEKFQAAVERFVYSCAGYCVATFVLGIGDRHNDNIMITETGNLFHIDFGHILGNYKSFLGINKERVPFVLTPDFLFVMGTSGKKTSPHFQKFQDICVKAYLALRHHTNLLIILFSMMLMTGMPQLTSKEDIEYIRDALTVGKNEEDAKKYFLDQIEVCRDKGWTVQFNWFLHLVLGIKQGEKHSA
# Sequence of PI3-kinase p110-alpha/p85-alpha (Homo sapiens, UniProt P42336) (P27986 whole entry): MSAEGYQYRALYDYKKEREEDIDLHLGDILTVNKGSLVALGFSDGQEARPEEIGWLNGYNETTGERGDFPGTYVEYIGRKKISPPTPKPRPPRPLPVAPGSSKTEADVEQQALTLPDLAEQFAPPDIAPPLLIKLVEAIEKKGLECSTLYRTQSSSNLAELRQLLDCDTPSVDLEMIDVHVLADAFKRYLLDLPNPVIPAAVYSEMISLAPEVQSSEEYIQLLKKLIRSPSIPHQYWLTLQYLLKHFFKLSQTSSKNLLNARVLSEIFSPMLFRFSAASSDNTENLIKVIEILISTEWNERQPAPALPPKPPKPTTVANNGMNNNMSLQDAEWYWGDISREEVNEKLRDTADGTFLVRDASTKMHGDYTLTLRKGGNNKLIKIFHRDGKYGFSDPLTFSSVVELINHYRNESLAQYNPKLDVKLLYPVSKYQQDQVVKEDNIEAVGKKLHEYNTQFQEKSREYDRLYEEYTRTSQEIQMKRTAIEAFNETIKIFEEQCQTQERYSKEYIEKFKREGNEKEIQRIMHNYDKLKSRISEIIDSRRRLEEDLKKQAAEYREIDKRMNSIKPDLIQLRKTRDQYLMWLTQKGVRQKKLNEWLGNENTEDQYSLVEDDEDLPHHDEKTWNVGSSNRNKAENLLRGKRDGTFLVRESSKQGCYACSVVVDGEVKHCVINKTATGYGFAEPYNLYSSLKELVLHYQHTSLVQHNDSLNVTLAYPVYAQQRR
# Sequence of PI3-kinase p110-alpha/p85-alpha (Homo sapiens, UniProt P42336) (P42336 whole entry): as the sequence (P42336 whole entry H1047R, looked up) above, with R1047H counted along it
smiles,measurement,setting,value
Fc1ccccc1-c1cc2nc(-c3ccco3)c(-c3ccco3)nc2cc1Br,Activity,[1],44.42%
same,Activity,[2],3.57%
same,EC50,[3],3.34 µM
same,Activity,[4],11%
same,IC50,[5],11.2 µM
same,Activity,[6],57.67%
same,Activity,[7],80.29%
same,Activity,[8],21.99%
same,Activity,[9],3.03%
same,Activity,[10],Dose-dependent effect
same,IC50,[11],13.7 µM
same,EC50,[12],0.093 µM
same,Activity,[13],24.42%
same,Activity,[14],Dose-dependent effect
same,Activity,[15],70.72%
same,Activity,[16],13.97%
same,EC50,[17],0.137 µM
same,Activity,[18],84.79%
same,Activity,[19],20.34%
same,Activity,[20],61.38%
same,Activity,[21],18.28%
same,Activity,[22],Dose-dependent effect
same,Activity,[23],15.72%
same,EC50,[24],9.89 µM
same,Activity,[25],Dose-dependent effect
same,Activity,[26],Dose-dependent effect
same,Activity,[27],0.88%
same,Activity,[28],0.96%
same,EC50,[29],15.7 µM
same,Activity,[30],10.63%
same,Activity,[31],23.77%
same,Activity,[32],32.16%
same,EC50,[33],> 30 µM
same,Activity,[34],1.01%
